Experimental data from publication PMC12445744, “Molecular docking to homology models of human and Trypanosoma brucei ERK8 that identified ortholog-specific inhibitors” (PLOS Neglected Tropical Diseases, 2025).
Where “and” joins values, the source holds several entries; their conditions need not be identical. Identical values can stand only once.

Target: T1, HsERK8 (Homo sapiens, UniProt Q8TD08)
T1 construct: plasmid pGEX2T expressing the full-length hERK8 coding region; made in house; host or cells: Escherichia coli Rosetta 2 (DE3)
T1 sequence (Q8TD08 1-544): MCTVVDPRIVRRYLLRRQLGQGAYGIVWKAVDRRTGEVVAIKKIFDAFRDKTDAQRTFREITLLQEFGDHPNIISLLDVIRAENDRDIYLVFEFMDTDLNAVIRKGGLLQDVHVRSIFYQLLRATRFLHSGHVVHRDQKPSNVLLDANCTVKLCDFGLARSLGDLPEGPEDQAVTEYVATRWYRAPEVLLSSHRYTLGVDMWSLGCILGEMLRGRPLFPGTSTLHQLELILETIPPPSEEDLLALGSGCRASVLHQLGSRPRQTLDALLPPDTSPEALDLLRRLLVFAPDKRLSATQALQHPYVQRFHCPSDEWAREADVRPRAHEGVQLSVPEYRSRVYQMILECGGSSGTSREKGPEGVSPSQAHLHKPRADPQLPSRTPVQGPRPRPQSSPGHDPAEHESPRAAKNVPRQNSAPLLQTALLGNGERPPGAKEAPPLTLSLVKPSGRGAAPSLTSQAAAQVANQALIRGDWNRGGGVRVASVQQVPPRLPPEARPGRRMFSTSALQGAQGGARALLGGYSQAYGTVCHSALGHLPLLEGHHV
Assay: Luciferase-based kinase inhibition assay (ATP luminescence), GST-tagged HsERK8 with MBP substrate
Format: biochemical
Conditions: for raw luminescence, HsERK8: sheet Kinase_glo_080924_IFPS (2), replicate wells, listed as Ida
Experimental: Escherichia coli strain Rosetta 2 (DE3) (Cat# 71397, MilliporeSigma, Burlington, MA) was transformed with the plasmid pGEX2T expressing the full-length hERK8 coding region or pGSTAg expressing the full-length TbERK8 coding region. One liter of Terrific Broth media containing 100 μg/ml Ampicillin and 30 μg/ml chloramphenicol in 2 L baffled flasks was inoculated with 25 mL from an overnight culture of Rosetta 2 strains harboring either the pGEX2T-hERK8 or pGSTAg-TbERK8 plasmid. Two baffled flasks were inoculated with each overnight strain and incubated and shaken at 175 RPM in a New Brunswick Innova 44R Incubator Shaker (Fischer Scientific, Pittsburgh, PA) at 37 °C until the cultures reached an O.D.600 of 0.94. Once the cultures in the flask reached the target O.D.600, the flasks were cooled to 4 °C in an ice water bath. The cooled cultures were induced by adding isopropyl β-D-1-thiogalactopyranoside (IPTG) to a final concentration of 0.1 mM and shaken at 16 °C for 16 hours at 175 RPM in a New Brunswick Innova 44R Incubator Shaker (Fischer Scientific, Pittsburgh, PA). On the next day, the cultures were pelleted by centrifugation at 9000 xg in a JLA 10.500 rotor (Beckman Coulter; Brea, CA), and the media was decanted. The pellet was flash-frozen in liquid nitrogen and then thawed on ice. The thawed pellet was resuspended in lysis buffer (25 mM Tris, 75 mM NaCl, 0.5% TritonX-100 and 0.5% Nonidet P-40, 1 mM phenylmethanesulfonyl fluoride, 1 mM benzamidine⋅HCl) and lysed using a microfluidizer M-110P from Microfluidics (Westwood, MA). The crude lysates were clarified by centrifugation at 140,000 xg in a 45Ti rotor (Beckman Coulter, Brea, CA) for 30 min at 4°C. The clarified lysate was loaded by gravity to a 3 mL glutathione agarose resin column (Cat# G-250–10, GOLDBIO, St. Louis, MO) formed in a 1.5 × 20 cm glass chromatography column (Cat# 7371522, Bio-Rad, Hercules, CA). The column was washed with 30 mL of PBS (pH 7.4) containing 1 mM DTT. Elution buffer (50 mM Tris buffer pH 8.0 containing 10 mM reduced glutathione and 1 mM DTT was added to the washed column), and 1 mL fractions were collected by gravity and examined by SDS-PAGE stained by Coomassie dye. Peak fractions pooled from the elution were dialyzed (4x 1:500 dilutions) in kinase buffer (30 mM Tris, pH 7.4, 10 mM MgCl2, 1 mM DTT, 5% glycerol).
We performed kinase assays in buffer K (30 mM Tris pH 7.4, 10 mM MgCl2, 1 mM DTT, 5% glycerol, 50 μM ATP, and 0.1 mg/mL BSA) at 30°C for 30 min in 30 μL reactions. GST-tagged HsERK8 and TbERK8 were tested using myelin basic protein (MBP) (Cat# 13–110, Millipore, Darmstadt, Germany) as the substrate at increasing concentrations to determine the optimal activity for the assay. ATP consumption was determined by adding equal volumes of the kinase assay reagent (Promega, Cat# V5601, Madison, WI) following the manufacturer’s protocol. Luminescence was measured using the microplate reader (SpectraMax L, Molecular Devices, Sunnyvale, CA).
These compounds were screened for kinase inhibition utilizing a luciferase-based assay. Briefly, the kinases were tested using MBP as the substrate at a 14-fold molar excess in 384-well flat-bottom white plates (BRANDTECH Scientific, Cat# 781681, Essex, CT). These compounds were tested at concentrations ranging from […] to 150 nM. The kinases plus MBP substrate reactions were incubated with each inhibitor for 30 minutes at 30°C. Equal volumes of kinase assay mix Promega (Cat# V5601, Madison, WI) were added to the kinase/inhibitor reaction after 30 minutes, following the manufacturer’s protocol. ATP luminescence was measured using a microplate reader (SpectraMax L, Molecular Devices, Sunnyvale, CA). IC50 values were calculated from assays done in triplicate by fitting the data using Prism 8.1.1 (GraphPad).

CC(=O)[C@]1(O)Cc2c(O)c3c(c(O)c2[C@@H](O[C@H]2C[C@H](N)[C@H](O)[C@H](C)O2)C1)C(=O)c1ccccc1C3=O [Idarubicin]
raw luminescence, HsERK8 (0.00015 mM compound): 5033.01 RLU and 5464.22 RLU and 4680.41 RLU
raw luminescence, HsERK8 (0.00061 mM compound): 4929.7 RLU and 5104.88 RLU and 5152.04 RLU
raw luminescence, HsERK8 (0.00244 mM compound): 4819.65 RLU and 4756.77 RLU and 4179.58 RLU
raw luminescence, HsERK8 (0.00977 mM compound): 4606.3 RLU and 4691.64 RLU and 4170.6 RLU
raw luminescence, HsERK8 (0.03906 mM compound): 4799.44 RLU and 4835.38 RLU and 4925.21 RLU
raw luminescence, HsERK8 (0.15625 mM compound): 4702.87 RLU and 5131.83 RLU and 4550.15 RLU
raw luminescence, HsERK8 (0.62500 mM compound): 4750.03 RLU and 4873.56 RLU and 4527.69 RLU
raw luminescence, HsERK8 (2.50000 mM compound): 3723.67 RLU and 3768.58 RLU and 3368.82 RLU
raw luminescence, HsERK8 (10.00000 mM compound, signal = ATP left): 988.186 RLU and 1334.05 RLU and 1307.1 RLU
inhibitory effect on kinase activity of HsERK8 (concentrations below 4.0 x10^-5 M (above this the red compound blocked luminescence)): no detectible (n/d) inhibitory effect
